Publication PMC8457056, “Remodeling of the Fibrillation Pathway of α‐Synuclein by Interaction with Antimicrobial Peptide LL‐III” (Chemistry (Weinheim an Der Bergstrasse, Germany), 2021)

Assays:
α‐Syn droplets = assay: fluorescence microscopy, partitioning of LL-III in α-Syn droplets; type: binding, human; settings: 100 μM α-Syn, pH 5.0, 25 °C
Procedure: Figure 1 A) Phase‐contrast light microscopy snapshots of 100 μM and 200 μM α‐Syn solutions collected 2, 4, 7, 9 and 16 days after incubation of the monomeric α‐Syn. B) Phase‐contrast light microscopy snapshots of a solution of 100 μM α‐Syn in the presence of the reported concentration of antimicrobial peptide LL‐III. Each sample was prepared by mixing the monomeric form of α‐Syn with LL‐III. The pictures were taken after 9 and 16 days of incubation. For the snapshots after 16 days, at each peptide concentration, two different regions of the cover slip were sampled, showing the presence of discrete droplets as well as droplet clusters in solution. C) Phase‐contrast light and fluorescence microscopy snapshots of a 100 μM α‐Syn solution in the presence of 50 μM LL‐III (total peptide concentration, the concentration of the carboxyfluorescein‐labelled peptide was 1 μM). All the experiments were performed at room temperature (25 °C) in 20 mM sodium acetate buffer, pH 5.0. […]
To reveal if the short antimicrobial peptide LL‐III is able to affect the fibril formation of α‐Syn, we performed a series of microscopy experiments by using 100 μM of α‐Syn and varying the concentration of LL‐III between 50 μM and 500 μM. […] To confirm partitioning of the LL‐III peptide in the α‐Syn droplets, complementary fluorescence microscopy experiments were performed using a carboxyfluorescein‐labelled LL‐III peptide. […]

net charge of LL-III = type: physicochemical

For NH2-VNWKKIL GKIIKVVK -CONH2 [LL‐III], the “partitioning in α-Syn droplets” value (α‐Syn droplets; 50 μM LL-III of which 1 μM carboxyfluorescein-labelled, 20 mM sodium acetate, excitation 488 nm) was “most of the LL‐III peptide was localized in the α‐Syn droplets”, the “droplet clusters after 16 days” value (α‐Syn droplets; 16 days) was “formation of LL‐III‐enriched droplet clusters were observed after 16 days” and the “net charge at pH 5.0” value (net charge of LL-III; also at the lower pH of pH 5.0) was “+6”. For the same substance, the “net charge at pH 7.4” value (net charge of LL-III; pH 7.4) was “+6”.
